Results as given in patent US8003093B2, “B cell-based vaccine loaded with the ligand of natural killer T cell and antigen” (Seoul National University Industry Foundation, priority 2006, dated 2011).

Legend:
[1] = rodents and apes; cited from earlier work
[2] = 2200 μg/kg, mouse; cited from earlier work
[3] = clinical trial, systemic administration; cited from earlier work
[4] = Dose escalation study of αGalCer; format: in vivo
Description: There is a little, if ever, chance to show a slight systemic side effect (Giaccone et al., Clin. Cancer Res., 8: 3702, 2002).

For CCCCCCCCCCCCCCCCCCCCCCCCCC(=O)N[C@@H](CO[C@H]1O[C@H](CO)[C@H](O)[C@H](O)[C@H]1O)[C@H](O)[C@H](O)CCCCCCCCCCCCCC [αGalCer, Alpha-galactosylceramide], the toxicity [1] is listed as “doesn't seem to induce toxicity”, the side effects [2] is listed as “No side effects” and the side effect [3] is listed as “a light headache”. The dose-limiting toxicity [4] was “did not cause dose-limiting toxicity”.
